According to publication PMC3914206:

Legend:
Assay type in all cases: binding
Set-up in all cases: KINOMEscan: ABL1(F317L)-phosphorylated / KINOMEscan: ABL1(H396P)-nonphosphorylated / KINOMEscan: ABL1(H396P)-phosphorylated / KINOMEscan: ABL1(M351T)-phosphorylated / KINOMEscan: ABL1(T315I)-phosphorylated / KINOMEscan: ABL1-nonphosphorylated / KINOMEscan: ABL1-phosphorylated / KINOMEscan: ACVR2A / KINOMEscan: ACVR2B / KINOMEscan: ADCK3 / KINOMEscan: ADCK4 / KINOMEscan: AKT1 / KINOMEscan: AKT3 / KINOMEscan: ALK / KINOMEscan: ARK5 / KINOMEscan: AURKA / KINOMEscan: AURKC / KINOMEscan: BIKE / KINOMEscan: BMPR1A / KINOMEscan: BMPR1B / KINOMEscan: BMX / KINOMEscan: BRK / KINOMEscan: BRSK1 / KINOMEscan: BRSK2 / KINOMEscan: CAMK1 / KINOMEscan: CAMK1D / KINOMEscan: CAMK1G / KINOMEscan: CAMK2A / KINOMEscan: CAMK2B / KINOMEscan: AAK1 / KINOMEscan: CAMK2D / KINOMEscan: CAMK2G / KINOMEscan: ABL1(F317I)-nonphosphorylated / KINOMEscan: ABL1(F317I)-phosphorylated / KINOMEscan: ABL1(F317L)-nonphosphorylated: unit: % Ctrl
Settings in all cases: Compound Concentration 10 µM
[1] = molecular target: T1, panel of 442 kinases (Homo sapiens, UniProt Q9UQB9)
T1 construct: purchased KINOMEscan
T1 sequence (Q9UQB9 1-309): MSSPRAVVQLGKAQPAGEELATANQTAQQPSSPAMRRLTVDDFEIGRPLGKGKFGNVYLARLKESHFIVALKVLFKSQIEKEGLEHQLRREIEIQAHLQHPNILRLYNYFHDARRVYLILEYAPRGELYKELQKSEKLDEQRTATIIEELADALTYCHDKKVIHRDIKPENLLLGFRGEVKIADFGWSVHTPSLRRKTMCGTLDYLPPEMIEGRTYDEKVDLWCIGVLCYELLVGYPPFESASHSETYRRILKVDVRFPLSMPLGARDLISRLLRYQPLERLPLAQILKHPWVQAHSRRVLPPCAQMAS
Source text: (§1) We assessed the selectivity of members of this scaffold using the KINOMEscan methodology across a near comprehensive panel of 442 kinases [[18,27]].

[2] = molecular target: T2, panel of 442 kinases (Homo sapiens, UniProt Q04759)
T2 construct: purchased KINOMEscan
Source text: as §1

[3] = molecular target: T3, panel of 442 kinases (Homo sapiens, UniProt Q8IW41)
T3 construct: purchased KINOMEscan
T3 sequence (Q8IW41 1-473): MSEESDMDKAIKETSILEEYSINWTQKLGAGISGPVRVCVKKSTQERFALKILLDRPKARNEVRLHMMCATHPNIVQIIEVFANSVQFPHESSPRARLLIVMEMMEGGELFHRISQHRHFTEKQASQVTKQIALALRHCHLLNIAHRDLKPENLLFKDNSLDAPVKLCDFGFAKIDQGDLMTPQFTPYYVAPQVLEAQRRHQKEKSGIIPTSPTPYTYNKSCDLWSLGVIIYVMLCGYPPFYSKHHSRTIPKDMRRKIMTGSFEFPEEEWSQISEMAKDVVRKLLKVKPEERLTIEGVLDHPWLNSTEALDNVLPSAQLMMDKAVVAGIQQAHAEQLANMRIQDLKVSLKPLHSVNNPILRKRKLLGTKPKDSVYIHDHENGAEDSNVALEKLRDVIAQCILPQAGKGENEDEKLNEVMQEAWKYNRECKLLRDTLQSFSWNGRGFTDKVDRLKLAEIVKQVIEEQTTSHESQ
Source text: as §1

T2 sequence (Q04759 whole entry): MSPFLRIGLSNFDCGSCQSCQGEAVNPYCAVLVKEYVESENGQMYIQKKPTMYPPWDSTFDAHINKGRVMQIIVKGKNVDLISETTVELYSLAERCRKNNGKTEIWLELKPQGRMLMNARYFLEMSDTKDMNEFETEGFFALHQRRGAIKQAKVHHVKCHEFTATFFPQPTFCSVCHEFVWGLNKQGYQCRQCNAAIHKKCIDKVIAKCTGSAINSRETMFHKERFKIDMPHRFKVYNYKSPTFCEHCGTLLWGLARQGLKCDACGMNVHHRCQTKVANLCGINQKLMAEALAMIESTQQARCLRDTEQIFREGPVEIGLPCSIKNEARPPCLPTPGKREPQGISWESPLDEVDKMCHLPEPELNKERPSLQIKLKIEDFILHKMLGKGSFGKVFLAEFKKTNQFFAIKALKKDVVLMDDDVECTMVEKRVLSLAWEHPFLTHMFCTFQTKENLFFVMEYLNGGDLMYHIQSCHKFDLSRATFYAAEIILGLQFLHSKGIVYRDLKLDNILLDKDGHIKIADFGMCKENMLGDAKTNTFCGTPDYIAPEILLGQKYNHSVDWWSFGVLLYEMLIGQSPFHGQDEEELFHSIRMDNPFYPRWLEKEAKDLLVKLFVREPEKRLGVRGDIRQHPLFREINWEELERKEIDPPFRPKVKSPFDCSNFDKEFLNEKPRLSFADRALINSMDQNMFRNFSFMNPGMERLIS

Row | Structure (SMILES) | KINOMEscan: AURKC [1] | KINOMEscan: PRKCQ [2] | KINOMEscan: MAPKAPK5 [3]
1 | COc1cc(C(=O)N2CCC(N3CCN(C)CC3)CC2)ccc1Nc1ncc2c(n1)N(C1CCCC1)c1ccccc1C(=O)N2C [Compound 25, 11-cyclopentyl-2-((2-methoxy-4-(4-(4-methylpiperazin-1-yl)piperidine-1-carbonyl)phenyl)amino)-5-methyl-5H-benzo[e]pyrimido[5,4-b][1,4]diazepin-6(11H)-one] | 38 | 100 | 96
2 | COc1cc(C(=O)N2CCC(N3CCN(C)CC3)CC2)ccc1Nc1ncc2c(n1)N1CCc3cccc(c31)C(=O)N2C [Compound 24] | 50 |  | 
3 | COc1cc(C(=O)N2CCC(N3CCN(C)CC3)CC2)ccc1Nc1ncc2c(n1)N(C)c1ccccc1C(=O)N2C [15 (LRRK2-IN-1)] | 50 | 100 | 97
4 | CCOc1cc(C(=O)N2CCC(N3CCN(C)CC3)CC2)ccc1Nc1ncc2c(n1)N(C1CCCC1)c1ccccc1C(=O)N2C [Compound 26] | 66 | 100 | 100
